Data as given in ChEMBL document CHEMBL3132824, “Discovery of novel pyridazinylthioacetamides as potent HIV-1 NNRTIs using a structure-based bioisosterism approach” (Medchemcomm, 2013).

Assays:
[1] = Cytotoxicity against HIV-2 ROD mock-infected human MT4 cells assessed as reduction in cell viability by MTT assay; type: cell-based; conditions: HIV-2 ROD mock-infected MT4 cells
[2] = Selectivity ratio of CC50 for HIV-1 3B mock-infected human MT4 cells to EC50 for HIV-1 3B infected in human MT4 cells; type: ADME, cell-based; conditions: read-out: Ratio CC50/EC50
[3] = test system: Human immunodeficiency virus 2; experiment: Antiviral activity against HIV-2 ROD infected in human MT4 cells assessed as inhibition of virus-induced cytopathicity by MTT assay; type: functional, organism-based; conditions: Human immunodeficiency virus 2, ISOLATE ROD
[4] = Selectivity ratio of CC50 for HIV-2 ROD mock-infected human MT4 cells to EC50 for HIV-2 ROD infected in human MT4 cells; type: ADME, cell-based; conditions: read-out: Ratio CC50/EC50
[5] = Cytotoxicity against HIV-1 3B mock-infected human MT4 cells assessed as reduction in cell viability by MTT assay; type: cell-based; conditions: HIV-1 3B mock-infected MT4 cells
[6] = test system: Human immunodeficiency virus 1; experiment: Antiviral activity against HIV-1 3B infected in human MT4 cells assessed as inhibition of virus-induced cytopathicity by MTT assay; type: functional, organism-based; conditions: Human immunodeficiency virus 1, 3B
[7] = molecular target: Human immunodeficiency virus type 1 reverse transcriptase (Human immunodeficiency virus 1, UniProt Q72547); experiment: Inhibition of purified recombinant HIV-1 reverse transcriptase assessed as inhibition of biotin-dUTP incorporation using poly(rC)-oligo(dG) as template primer

O=C(CSc1nnccc1-c1cccc2ccccc12)Nc1ccc(Cl)cc1Cl
CC50 [1]: 232 µM | selectivity ratio [2]: > 684 | EC50 [3]: > 232 µM | selectivity ratio [4]: < 1 | CC50 [5]: > 284 µM | EC50 [6]: 0.42 µM

COC(=O)c1ccc(NC(=O)CSc2nnccc2-c2cccc3ccccc23)c(Br)c1
CC50 [1]: > 246 µM | selectivity ratio [2]: 1110 | EC50 [3]: > 246 µM | selectivity ratio [4]: < 1 | CC50 [5]: 159 µM | EC50 [6]: 0.14 µM

Cc1ccccc1NC(=O)CSc1nnccc1-c1cccc2ccccc12
CC50 [1]: 150 µM | selectivity ratio [2]: 130 | EC50 [3]: > 150 µM | selectivity ratio [4]: < 1 | CC50 [5]: 142 µM | EC50 [6]: 1.09 µM

Cc1ccc(NC(=O)CSc2nnccc2-c2cccc3ccccc23)c([N+](=O)[O-])c1
CC50 [1]: 244 µM | selectivity ratio [2]: 1440 | EC50 [3]: > 244 µM | selectivity ratio [4]: < 1 | CC50 [5]: 204 µM | EC50 [6]: 0.14 µM

CC(=O)c1ccc(NC(=O)CSc2nnccc2-c2cccc3ccccc23)c(Br)c1
CC50 [1]: 48.5 µM | selectivity ratio [2]: 370 | EC50 [3]: > 48.5 µM | selectivity ratio [4]: < 1 | CC50 [5]: 46.3 µM | EC50 [6]: 0.13 µM

Cc1ccc(NC(=O)CSc2nnccc2-c2cccc3ccccc23)c(Br)c1
CC50 [1]: 215 µM | selectivity ratio [2]: 929 | EC50 [3]: > 215 µM | selectivity ratio [4]: < 1 | CC50 [5]: 182 µM | EC50 [6]: 0.2 µM

O=C1Nc2ccc(Cl)cc2[C@@](C#CC2CC2)(C(F)(F)F)O1 [EFAVIRENZ]
CC50 [1]: > 6.34 µM | selectivity ratio [2]: > 1190 | CC50 [5]: > 6.34 µM

O=C(CSc1nnccc1-c1cccc2ccccc12)N1CCc2ccccc2C1
CC50 [1]: 36.5 µM | selectivity ratio [2]: 29 | EC50 [3]: > 36.5 µM | selectivity ratio [4]: < 1 | CC50 [5]: 34 µM | EC50 [6]: 1.15 µM

O=C(CSc1nnccc1-c1cccc2ccccc12)c1ccc(Cl)cc1Cl
CC50 [1]: 55 µM | selectivity ratio [2]: 10 | EC50 [3]: > 55 µM | selectivity ratio [4]: < 1 | CC50 [5]: 54.6 µM | EC50 [6]: 5.46 µM

O=C(CSc1nnccc1-c1cccc2ccccc12)Nc1ccccc1[N+](=O)[O-]
CC50 [1]: 135 µM | selectivity ratio [2]: 2150 | IC50 [7]: 4.06 µM | EC50 [3]: > 135 µM | selectivity ratio [4]: < 1 | CC50 [5]: 99.9 µM | EC50 [6]: 0.046 µM

Cc1ccnc2c1NC(=O)c1cccnc1N2C1CC1 [NEVIRAPINE]
CC50 [1]: > 15 µM | CC50 [5]: > 15 µM

O=C(CSc1nnccc1-c1cccc2ccccc12)Nc1ccccc1Cl
CC50 [1]: 35 µM | selectivity ratio [2]: 177 | EC50 [3]: > 35 µM | selectivity ratio [4]: < 1 | CC50 [5]: 34.2 µM | EC50 [6]: 0.19 µM

CC(C)Nc1cccnc1N1CCN(C(=O)c2cc3cc(NS(C)(=O)=O)ccc3[nH]2)CC1 [DELAVIRDINE]
CC50 [1]: > 36.2 µM | selectivity ratio [2]: > 1100 | CC50 [5]: > 36.2 µM

O=C(CSc1nnccc1-c1cccc2ccccc12)Nc1ccccc1
CC50 [1]: 174 µM | selectivity ratio [2]: 105 | EC50 [3]: > 174 µM | selectivity ratio [4]: < 1 | CC50 [5]: 203 µM | EC50 [6]: 1.93 µM

Cc1cn([C@H]2C[C@H](N=[N+]=[N-])[C@@H](CO)O2)c(=O)[nH]c1=O [ZIDOVUDINE]
selectivity ratio [2]: 12200 | EC50 [3]: 0.0045 µM | selectivity ratio [4]: 56900 | EC50 [6]: 0.021 µM

O=C(CSc1nnccc1-c1cccc2ccccc12)Nc1ccccc1Br
CC50 [1]: 31.3 µM | selectivity ratio [2]: 151 | EC50 [3]: > 31.3 µM | selectivity ratio [4]: < 1 | CC50 [5]: 31.5 µM | EC50 [6]: 0.21 µM

Nc1ccn([C@H]2CC[C@@H](CO)O2)c(=O)n1 [ZALCITABINE]
CC50 [1]: > 94.7 µM | selectivity ratio [2]: > 93 | EC50 [3]: 1.28 µM | selectivity ratio [4]: > 74 | CC50 [5]: > 94.7 µM

O=C(CSc1nnccc1-c1cccc2ccccc12)Nc1cccnc1Cl
CC50 [1]: 164 µM | selectivity ratio [2]: 573 | EC50 [3]: > 164 µM | selectivity ratio [4]: < 1 | CC50 [5]: 156 µM | EC50 [6]: 0.27 µM

CCOC(=O)c1ccc(NC(=O)CSc2nnccc2-c2cccc3ccccc23)c(Br)c1
CC50 [1]: > 239 µM | selectivity ratio [2]: 420 | EC50 [3]: > 239 µM | selectivity ratio [4]: < 1 | CC50 [5]: 237 µM | EC50 [6]: 0.56 µM

O=C(CSc1nnccc1-c1cccc2ccccc12)Nc1ccccc1F
CC50 [1]: 241 µM | selectivity ratio [2]: 799 | EC50 [3]: > 241 µM | selectivity ratio [4]: < 1 | CC50 [5]: 204 µM | EC50 [6]: 0.26 µM

O=C(CSc1nnccc1-c1cccc2ccccc12)N1CCCc2ccccc21
CC50 [1]: 35 µM | selectivity ratio [2]: < 1 | EC50 [3]: > 35 µM | selectivity ratio [4]: < 1 | CC50 [5]: 34.5 µM | EC50 [6]: > 34.5 µM
